Source: BindingDB's records for patent US11407738 (Achillion Pharmaceuticals, 2022)

Target: Complement factor D (Homo sapiens, UniProt P00746)
Experiment: Human Factor D Assay
Protocol: Human Factor D (purified from human serum, Complement Technology, Inc.) at 80 nM final concentration is incubated with test compound at various concentrations for 5 min at room temperature in 50 mM Tris, 1M NaCl, pH 7.5. A synthetic substrate Z-L-Lys-SBzl and DTNB (Ellman's reagent) are added to final concentrations of 100 μM each. […] IC50 values are calculated by nonlinear regression of complement Factor D reaction rates as a function of test compound concentration.

Complement factor D, sequence (P00746 whole entry): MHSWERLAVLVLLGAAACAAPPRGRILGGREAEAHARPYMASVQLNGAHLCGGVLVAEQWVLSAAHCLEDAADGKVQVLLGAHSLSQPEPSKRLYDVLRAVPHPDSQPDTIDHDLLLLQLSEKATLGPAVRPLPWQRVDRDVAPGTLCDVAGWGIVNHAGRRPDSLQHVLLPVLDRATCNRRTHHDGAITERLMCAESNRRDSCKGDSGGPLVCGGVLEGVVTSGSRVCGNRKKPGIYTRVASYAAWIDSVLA

IC50: in the range around 5.5 µM
SMILES: CC(=O)c1nn(CC(=O)N2C[C@H](F)C[C@H]2C(=O)NC2CCN(C(=O)c3cn[nH]c3)CC2)c2ccc(-c3cnc(C)nc3)cc12 [US11407738, Example 00330]
